Assay [1] concerns KB-3-1 adenocarcinoma cells. Description: MTT cytotoxicity assay, parental P-gp-negative KB-3-1 cells. In kind it is cell-based, human. As to the method:
(§1) Exemplary compounds were also tested against the KB-V1 adenocarcinoma cell line that expresses high levels of P-gp (the protein product of MDR1). […] MDR1 selectivity is determined by the ratio of IC50 against KB-3-1 cells divided by its IC50 against KB-V1 cells.
(§2) This example describes evaluation of compounds using the MTT cytotoxicity assay. Cell survival was measured by the MTT (3-(4,5-dimethylthiazol-2-yl)-2,5-diphenyltetrazolium bromide) assay as previously described by Ludwig, J. A. et al. Selective toxicity of NSC73306 in MDR1-positive cells as a new strategy to circumvent multidrug resistance in cancer. […] Briefly, cells were seeded in […] of growth medium at a density of 5000 cells/well in 96-well plates and allowed to establish for 24 hours, at which time serially diluted drugs were added in an additional […] growth medium. Cells were then incubated for 72 hours at 37° C. in humidified 5% CO2, at which time the growth media was drawn, and replaced with MTT in IMDM growth media and incubated for 4 hours. The MTT solution was then drawn from the wells, and […] acidified ethanol solution was added to each well and after 15 minutes absorption at 560 nm was measured.

For assay [2], the system named is KB-V1 adenocarcinoma cell line. Description: MTT cytotoxicity assay, P-gp (MDR1) expressing KB-V1 cells; MDR1 selectivity vs KB-3-1. In kind it is cell-based, human. The note with it: for IC50: MTT, 72 hours; for MDR1 selectivity / MDR1 select.: ratio of IC50 against KB-3-1 divided by IC50 against KB-V1; for MDR1 selectivity: >1 = MDR1-inverse activity; for MDR1-inverse selectivity (in words): Example 3, Table 1, KB-V1 vs KB-3-1. As to the method: as §1, §2

Setting [3] is: Homo sapiens, Table 1, 72 hours, KB-3-1 (P-gp-negative).
The mark [4] stands for this setting: Homo sapiens, Table 1, KB-V1 (high P-gp).
The mark [5] stands for this setting: Table 2, 72 hours, unit inferred.
The mark [6] stands for this setting: Homo sapiens, KB 3-1, Table 2, 72 hours, unit inferred.
Setting [7] is: Homo sapiens, KB-V1, Table 2, unit inferred.

Turning to `O=C1Nc2ccccc2C1=O`, the concentration for half-maximal inhibition (IC50) in assay [1] (setting [3]) and in assay [2] (setting [4]) was above 50 µM each time.

As to `NC(=S)N/N=C/c1ncccc1N`, the half-maximal inhibitory concentration (IC50) turned out to be 1.4 ± 2.5 µM in assay [1] (setting [3]) and 5.9 ± 2.6 µM in assay [2] (setting [4]). In addition, the MDR1 selectivity in assay [2] (Table 1) is on record as 0.2.

With `Cc1cnc(/C=N/NC(N)=S)c2cccc(N)c12`, the 50% inhibitory concentration (IC50) in assay [1] (setting [3]) stood at 1.9 ± 0.8 µM; in assay [2] (setting [4]), 2.1 ± 0.3 µM. For the same compound, the MDR1 selectivity in assay [2] (Table 1) is 0.9.

`CC(=O)Nc1ccc(/C=N/NC(N)=S)cc1`: the IC50 in assay [1] (setting [3]) and in assay [2] (setting [4]) was above 50 µM in each case.

As to `COc1ccc(NC(=S)NN=C2Cc3ccccc3C2)cc1`, the IC50 in assay [1] (setting [3]) and in assay [2] (setting [4]) was above 50 µM in each case.

On to `COc1ccc(NC(=S)N/N=C2\CCc3ccccc32)cc1`, for which the concentration for half-maximal inhibition (IC50) in assay [1] (setting [3]) and in assay [2] (setting [4]) was above 50 µM in each case.

For the compound `NC(=S)N/N=C1\C(=O)Nc2ccccc21`, the half-inhibitory concentration (IC50) in assay [1] (setting [3]) and in assay [2] (setting [4]) was above 50 µM each time.

Take `NC(=O)N/N=C1\C(=O)Nc2ccccc21`: the concentration for half-maximal inhibition (IC50) in assay [1] (setting [3]) and in assay [2] (setting [4]) was above 50 µM each time.

Regarding `COc1ccc(NC(=S)NN)cc1`, the IC50 in assay [1] (setting [3]) and in assay [2] (setting [4]) was above 50 µM each time.

With `COc1ccc(NC(=S)N/N=C2\C(=O)Nc3ccc(S(=O)(=O)O)cc32)cc1`, the IC50 in assay [1] (setting [3]) and in assay [2] (setting [4]) was above 50 µM in each case.

On to `COc1ccc(NC(=S)N/N=C2\C(=O)Nc3c2ccc2ccccc32)cc1`, for which the half-inhibitory concentration (IC50) amounted to 4.4 ± 3.6 µM in assay [1] (setting [3]) and 30.3 ± 5.9 µM in assay [2] (setting [4]). In addition, the MDR1 selectivity in assay [2] (Table 1) was found to be 0.1.

For `COc1ccc(NC(=O)N/N=C2\C(=O)Nc3ccccc32)cc1`, the IC50 in assay [1] (setting [3]) is 27.7 ± 3.3 µM; in assay [2] (setting [4]) it was above 50 µM.

Take `COc1ccc(NC(=S)N/N=C/c2ccc(NC(C)=O)cc2)cc1`: the concentration for half-maximal inhibition (IC50) in assay [1] (setting [3]) and in assay [2] (setting [4]) was above 50 µM each time.

For `COc1ccc(NC(=S)N/N=C2\C(=O)Nc3ccc(F)cc32)cc1` [Compound 7, 1-(5′-Fluoroisatin)-4-(4′-methoxyphenyl)-3-thiosemicarbazone], the “MDR1-inverse selectivity (in words)” value in assay [2] is on record as “MDR1-inverse selectivity”.

Take `COc1ccc(NC(=S)N/N=C2\C(=O)N(C)c3ccccc32)cc1` [Compound 8, 1-(N-methylisatin)-4-(4′-methoxyphenyl)-3-thiosemicarbazone]: the “MDR1-inverse selectivity (in words)” value in assay [2] is listed as “MDR1-inverse selectivity”.

`COc1ccc(NC(=S)N/N=C/c2ccccn2)cc1` [Compound 10, 1-(2′-Pyridinecarboxaldehyde)-4-(4′-methoxyphenyl)-3-thiosemicarbazone]: in assay [2], the “MDR1-inverse selectivity (in words)” value is on record as “MDR1-inverse selectivity”.

As to `COc1ccc(NC(=S)N/N=C2\C(=O)Nc3ccc([N+](=O)[O-])cc32)cc1` [Compound 12, 1-(5′-Nitroisatin)-4-(4′-methoxyphenyl)-3-thiosemicarbazone], the “MDR1-inverse selectivity (in words)” value in assay [2] was “MDR1-inverse selectivity”.

Take `C=CCNC(=S)N/N=C1\C(=O)Nc2ccccc21` [Compound 13, 1-Isatin-4-allyl-3-thiosemicarbazone]: the “MDR1-inverse selectivity (in words)” value in assay [2] is listed as “MDR1-inverse selectivity”.

As for `CNC(=S)NN=C1C(=O)Nc2ccccc21` [Compound M1, 1-Isatin-4-methyl-3-thiosemicarbazone], the half-maximal inhibitory concentration (IC50) came to 35.3 µM in assay [1] (setting [5]) and 19.4 µM in assay [2] (Table 2, unit inferred). Further, in assay [2] (Table 2), the MDR1 select. came to 1.82.

For the compound `O=C1Nc2ccccc2C1=NNC(=S)NC1CCCCC1` [Compound M2, 1-Isatin 4-cyclohexyl-3-thiosemicarbazone], the IC50 in assay [1] (setting [5]) was 9.14 µM; in assay [2] (Table 2, unit inferred) it was 4.38 µM. Further, the MDR1 select. in assay [2] (Table 2) is 2.09.

`CN(C)c1ccc(NC(=S)NN=C2C(=O)Nc3ccccc32)cc1` [Compound M3, 1-Isatin-4-(4′-(dimethylamino)phenyl)-3-thiosemicarbazone]: the half-inhibitory concentration (IC50) in assay [1] (setting [5]) came to 6.95 µM; in assay [2] (Table 2, unit inferred), 2.23 µM. Moreover, in assay [2] (Table 2), the MDR1 select. was found to be 2.99.

With `O=C1Nc2ccccc2C1=NNC(=S)Nc1ccc(O)cc1` [Compound M4, 1-Isatin-(4′-hydroxyphenyl)-3-thiosemicarbazone], the IC50 came to 35.8 µM in assay [1] (setting [5]) and 21.6 µM in assay [2] (Table 2, unit inferred). For the same compound, the MDR1 select. in assay [2] (Table 2) was 1.66.

`O=C1Nc2ccccc2C1=NNC(=S)Nc1ccccc1Cl` [Compound M5, 1-Isatin-(2′-chlorophenyl)-3-thiosemicarbazone]: the 50% inhibitory concentration (IC50) in assay [1] (setting [5]) stood at 2.22 µM; in assay [2] (Table 2, unit inferred) it was 1.17 µM. Further, the MDR1 select. in assay [2] (Table 2) is listed as 1.89.

Take `O=C1Nc2ccccc2C1=NNC(=S)NCc1ccccc1` [Compound M6, 1-Isatin-4-benzyl-3-thiosemicarbazone]: the half-maximal inhibitory concentration (IC50) in assay [1] (setting [5]) was 11.7 µM; in assay [2] (Table 2, unit inferred), 7.63 µM. Moreover, the MDR1 select. in assay [2] (Table 2) worked out at 1.53.

With `O=C1Nc2ccccc2C1=NNC(=S)Nc1cccc(Cl)c1` [Compound M7, 1-Isatin-(3′-chlorophenyl)-3-thiosemicarbazone], the IC50 in assay [1] (setting [5]) came to 1.87 µM; in assay [2] (Table 2, unit inferred), 0.64 µM. Besides, in assay [2] (Table 2), the MDR1 select. worked out at 2.92.

For `O=C1Nc2ccccc2C1=NNC(=S)Nc1ccccc1` [Compound M8, 1-Isatin-(phenyl)-3-thiosemicarbazone], the IC50 in assay [1] (setting [5]) came to 3.53 µM; in assay [2] (Table 2, unit inferred) it was 1.47 µM. In addition, the MDR1 select. in assay [2] (Table 2) came out at 2.40.

For the compound `O=C1Nc2ccccc2C1=NNC(=S)Nc1ccc(C(F)(F)F)cc1` [Compound M9, 1-Isatin-4-(4′-(trifluoromethyl)phenyl)-3-thiosemicarbazone], the IC50 turned out to be 8.59 µM in assay [1] (setting [5]) and 2.1 µM in assay [2] (Table 2, unit inferred). Besides, in assay [2] (Table 2), the MDR1 select. is on record as 4.09.

As for `O=C1Nc2ccc(F)cc2/C1=N/NC(=S)Nc1ccc(F)cc1` [Compound M10, 1-(5′-fluoroisatin)-4-(4′-fluorophenyl)-3-thiosemicarbazone], the IC50 in assay [1] (setting [6]) was 3.72 µM; in assay [2] (setting [7]) it was 0.91 µM. For the same compound, the MDR1 select. in assay [2] (Table 2) was found to be 4.07.

Take `CCCCNC(=S)NN=C1C(=O)Nc2ccccc21` [Compound M11, 1-Isatin-4-butyl-3-thiosemicarbazone]: the IC50 in assay [1] (setting [5]) turned out to be 10.9 µM; in assay [2] (Table 2, unit inferred), 5.69 µM. In addition, the MDR1 select. in assay [2] (Table 2) was 1.91.

On to `O=C1Nc2ccccc2C1=NNC(=S)Nc1ccc(Cl)cc1` [Compound M12, 1-Isatin-(4′-chlorophenyl)-3-thiosemicarbazone], for which the IC50 turned out to be 13.4 µM in assay [1] (setting [5]) and 4.99 µM in assay [2] (Table 2, unit inferred). The MDR1 select. in assay [2] (Table 2) was 2.68.

Take `O=C1Nc2ccccc2/C1=N/NC(=S)Nc1c(F)cc(F)cc1F` [Compound M13, 1-Isatin-4-(2′,4′,6′-trifluorophenyl)thiosemicarbazone]: the IC50 in assay [1] (setting [6]) is 38.4 µM; in assay [2] (setting [7]), 7.28 µM. The MDR1 select. in assay [2] (Table 2) was determined as 5.27.

In the case of `O=C1Nc2ccc([N+](=O)[O-])cc2C1=NNC(=S)Nc1ccccc1` [NSC716766, 1-(5′-Nitroisatin)-4-phenyl-3-thiosemicarbazone], the “MDR1-inverse selectivity (in words)” value in assay [2] is “MDR1-inverse selectivity”.

Turning to `O=C1Nc2ccc(Br)cc2/C1=N/NC(=S)Nc1ccc(F)cc1` [NSC716771, 1-(5′-Bromoisatin)-4-(4′-fluorophenyl)-3-thiosemicarbazone], the “MDR1-inverse selectivity (in words)” value in assay [2] is reported as “MDR1-inverse selectivity”.

As for `O=C1Nc2ccc(Br)cc2/C1=N/NC(=S)Nc1ccc([N+](=O)[O-])cc1` [NSC716772, 1-(5′-Bromoisatin)-4-(4′-nitrophenyl)-3-thiosemicarbazone], the “MDR1-inverse selectivity (in words)” value in assay [2] is given as “MDR1-inverse selectivity”.
